Patent publication US20260109731A1, “NE[…] USE THEREOF” (HUNAN MINGRUI PHARMACEUTICAL CO., LTD., priority 2023, published 2026)
“And” between values parts separate entries of the source, which are not always exact repeats. Equal entries are not always repeated. Where two headings read alike, the source gives them in different places.

What was measured:
[1] = Pharmacokinetic analysis of tail vein administration in female rats; settings: for clearance / half-life: plasma
Experimental: • Female SD rats (body weight: 200 g to 220 g) were purchased from BEIJING HFK BIOSCIENCE CO., LTD.
60 female SD rats were divided into two groups (Aintravenous and Bintravenous), with 30 rats per group (5 rats per blood collection time point). The drugs Aintravenous and Bintravenous were administered via tail vein injection at 3 mg/kg each (about 1.2 mL of drug solution). Blood was collected from the orbital venous plexus at time points (5 min, 30 min, 1 h, 2 h, 4 h, and 8 h) after administration, respectively, anticoagulated with heparin, and centrifuged, and then the plasma was separated and stored at −80° C. for later testing. At 8 h after blood collection, the animals were sacrificed, and the brain and liver tissues were taken and stored at −80° C. for later testing.
100 μL of plasma sample, 10 μL of internal standard solution (100 ng/mL testosterone D-3 solution), and 310 μL of acetonitrile were accurately measured, uniformly mixed by vortexing, and centrifuged (14000 rpm, 4° C.), and a resulting supernatant was taken and detected using UPLC-MS/MS (the analysis method was the same as that in pharmacokinetic analysis in mice).
About 100 mg of brain or liver tissue sample was taken, and accurately weighed. 100 μL of water and 400 μL acetonitrile were accurately added thereto, and a resulting mixture was subjected to homogenization. 100 μL of brain or liver tissue homogenate, 10 μL of internal standard solution (100 ng/mL testosterone D-3 solution), and 310 μL of acetonitrile were accurately measured, uniformly mixed by vortexing, and centrifuged (14000 rpm, 4° C.), and a resulting supernatant was taken and detected using UPLC-MS/MS (the analysis method was the same as that in pharmacokinetic analysis in mice).

[2] = Pharmacokinetic analysis of oral administration to male rats; assay type: in vivo; settings: oral gavage 12 mg/kg; for Blood drug concentration: individual rats 1-7
Text: Male SD rats (body weight: 230 g to 250 g) were purchased from BEIJING HFK BIOSCIENCE CO., LTD.

[3] = female SD rats, tail vein, 3 mg/kg, 8 h after administration
[4] = male, SD, rat, plasma, po, 12 mg/kg, 0.5 h, mean of 7 rats, read-out: Blood drug concentration, Mean value
[5] = male, SD, rat, plasma, po, 12 mg/kg, 1 h, mean of 7 rats, read-out: Blood drug concentration, Mean value
[6] = male, SD, rat, plasma, po, 12 mg/kg, 2 h, mean of 7 rats, read-out: Blood drug concentration, Mean value
[7] = male, SD, rat, plasma, po, 12 mg/kg, 3 h, mean of 7 rats, read-out: Blood drug concentration, Mean value
[8] = male, SD, rat, plasma, po, 12 mg/kg, 4 h, mean of 7 rats, read-out: Blood drug concentration, Mean value
[9] = male, SD, rat, plasma, po, 12 mg/kg, 5 h, mean of 7 rats, read-out: Blood drug concentration, Mean value
[10] = male, SD, rat, plasma, po, 12 mg/kg, 6 h, mean of 7 rats, read-out: Blood drug concentration, Mean value
[11] = male, SD, rat, plasma, po, 12 mg/kg, 8 h, mean of 7 rats, read-out: Blood drug concentration, Mean value
[12] = male, SD, rat, plasma, po, 12 mg/kg, 10 h, mean of 7 rats, read-out: Blood drug concentration, Mean value
[13] = male, SD, rat, plasma, po, 12 mg/kg, 12 h, mean of 7 rats, read-out: Blood drug concentration, Mean value
[14] = male, SD, rat, plasma, po, 12 mg/kg, 18 h, mean of 7 rats, read-out: Blood drug concentration, Mean value
[15] = male, SD, rat, plasma, po, 12 mg/kg, 24 h, mean of 7 rats, read-out: Blood drug concentration, Mean value

CC(=O)[C@H]1CC[C@H]2[C@@H]3CC[C@H]4C[C@H](O)CC[C@]4(C)[C@H]3CC[C@]12C [Allopregnanolone, 5α-pregnan-3α-ol-20-one, reference compound]
level of the administered compound in the liver ([1]; female SD rats, intravenous (tail vein), 3 mg/kg, 8 h after administration): undetectable | concentration in brain tissue [1, 3]: undetectable | concentration in plasma [1, 3]: undetectable | clearance ([1]; female, SD, rat, iv, 3 mg/kg): 109 mL/min/kg | half-life ([1]; female, SD, rat, iv, 3 mg/kg): 0.87 h | Blood drug concentration ([2]; male SD rats, 0.5 h): 0 ng/mL | level in the plasma at all time points ([2]; male SD rats, 30 min to 24 h): undetectable | Blood drug concentration ([2]; male SD rats, 1 h): 0 ng/mL | Blood drug concentration ([2]; male SD rats, 2 h): 0 ng/mL | Blood drug concentration ([2]; male SD rats, 3 h): 0 ng/mL | Blood drug concentration ([2]; male SD rats, 4 h): 0 ng/mL | Blood drug concentration ([2]; male SD rats, 5 h): 0 ng/mL | Blood drug concentration ([2]; male SD rats, 6 h): 0 ng/mL | Blood drug concentration ([2]; male SD rats, 8 h): 0 ng/mL | Blood drug concentration ([2]; male SD rats, 10 h): 0 ng/mL | Blood drug concentration ([2]; male SD rats, 12 h): 0 ng/mL | Blood drug concentration ([2]; male SD rats, 18 h): 0 ng/mL | Blood drug concentration ([2]; male SD rats, 24 h): 0 ng/mL | concentration at 0.5 h ([2]; male, SD, rat, plasma, po, 12 mg/kg, 0.5 h, individual rats 1-7, read-out: Blood drug concentration): 0 ng/mL | concentration at 0.5 h [2, 4]: 0 ng/mL | concentration at 1 h ([2]; male, SD, rat, plasma, po, 12 mg/kg, 1 h, individual rats 1-7, read-out: Blood drug concentration): 0 ng/mL | concentration at 1 h [2, 5]: 0 ng/mL | concentration at 2 h ([2]; male, SD, rat, plasma, po, 12 mg/kg, 2 h, individual rats 1-7, read-out: Blood drug concentration): 0 ng/mL | concentration at 2 h [2, 6]: 0 ng/mL | concentration at 3 h ([2]; male, SD, rat, plasma, po, 12 mg/kg, 3 h, individual rats 1-7, read-out: Blood drug concentration): 0 ng/mL | concentration at 3 h [2, 7]: 0 ng/mL | concentration at 4 h ([2]; male, SD, rat, plasma, po, 12 mg/kg, 4 h, individual rats 1-7, read-out: Blood drug concentration): 0 ng/mL | concentration at 4 h [2, 8]: 0 ng/mL | concentration at 5 h ([2]; male, SD, rat, plasma, po, 12 mg/kg, 5 h, individual rats 1-7, read-out: Blood drug concentration): 0 ng/mL | concentration at 5 h [2, 9]: 0 ng/mL | concentration at 6 h ([2]; male, SD, rat, plasma, po, 12 mg/kg, 6 h, individual rats 1-7, read-out: Blood drug concentration): 0 ng/mL | concentration at 6 h [2, 10]: 0 ng/mL | concentration at 8 h ([2]; male, SD, rat, plasma, po, 12 mg/kg, 8 h, individual rats 1-7, read-out: Blood drug concentration): 0 ng/mL | concentration at 8 h [2, 11]: 0 ng/mL | concentration at 10 h ([2]; male, SD, rat, plasma, po, 12 mg/kg, 10 h, individual rats 1-7, read-out: Blood drug concentration): 0 ng/mL | concentration at 10 h [2, 12]: 0 ng/mL | concentration at 12 h ([2]; male, SD, rat, plasma, po, 12 mg/kg, 12 h, individual rats 1-7, read-out: Blood drug concentration): 0 ng/mL | concentration at 12 h [2, 13]: 0 ng/mL | concentration at 18 h ([2]; male, SD, rat, plasma, po, 12 mg/kg, 18 h, individual rats 1-7, read-out: Blood drug concentration): 0 ng/mL | concentration at 18 h [2, 14]: 0 ng/mL | concentration at 24 h ([2]; male, SD, rat, plasma, po, 12 mg/kg, 24 h, individual rats 1-7, read-out: Blood drug concentration): 0 ng/mL | concentration at 24 h [2, 15]: 0 ng/mL

CC(=O)[C@H]1CC[C@H]2[C@@H]3CC[C@H]4C[C@H](O[N+](=O)[O-])CC[C@]4(C)[C@H]3CC[C@]12C [Compound 1]
level of allopregnanolone in the liver after administration of compound 1 ([1]; female SD rats, intravenous compound 1, 3 mg/kg, 8 h): undetectable | concentration at 8 h ([1]; female, SD, rat, brain, intravenous, 3 mg/kg): 209 ng/g | Kp at 8 h ([1]; female, SD, rat, brain/plasma, intravenous, 3 mg/kg): 6.68 | concentration at 8 h ([1]; female, SD, rat, liver, iv, 3 mg/kg): 193 ng/g | clearance ([1]; female, SD, rat, iv, 3 mg/kg): 87.8 mL/min/kg | half-life ([1]; female, SD, rat, iv, 3 mg/kg): 0.96 h | Blood drug concentration ([2]; male SD rats, 0.5 h, 12 mg/kg): 4.1 ng/mL and 5.7 ng/mL and 16.2 ng/mL and 8.7 ng/mL and 8.3 ng/mL and 8.1 ng/mL and 8.4 ng/mL | Blood drug concentration ([2]; male SD rats, 1 h, 12 mg/kg): 14.1 ng/mL and 18.9 ng/mL and 35.9 ng/mL and 31.5 ng/mL and 22.3 ng/mL and 23.8 ng/mL and 50.6 ng/mL | Blood drug concentration ([2]; male SD rats, 2 h, 12 mg/kg): 38.2 ng/mL and 85.8 ng/mL and 132.2 ng/mL and 88.8 ng/mL and 111.4 ng/mL and 123 ng/mL and 251.1 ng/mL | Blood drug concentration ([2]; male SD rats, 3 h, 12 mg/kg): 71.9 ng/mL and 121.8 ng/mL and 288.6 ng/mL and 243.6 ng/mL and 103.9 ng/mL and 130.9 ng/mL and 616.7 ng/mL | Blood drug concentration ([2]; male SD rats, 4 h, 12 mg/kg): 95.1 ng/mL and 147 ng/mL and 279.6 ng/mL and 252.2 ng/mL and 270.9 ng/mL and 343.8 ng/mL and 318.5 ng/mL | Blood drug concentration ([2]; male SD rats, 5 h, 12 mg/kg): 250.4 ng/mL and 142.4 ng/mL and 252.4 ng/mL and 284.1 ng/mL and 262.5 ng/mL and 410.7 ng/mL and 582.4 ng/mL | Blood drug concentration ([2]; male SD rats, 6 h, 12 mg/kg): 259.8 ng/mL and 263.9 ng/mL and 161.2 ng/mL and 260.7 ng/mL and 287.5 ng/mL and 409.8 ng/mL and 687.1 ng/mL | Blood drug concentration ([2]; male SD rats, 8 h, 12 mg/kg): 121.7 ng/mL and 276.1 ng/mL and 383.6 ng/mL and 523.1 ng/mL and 496.4 ng/mL and 78.9 ng/mL and 556.5 ng/mL | Blood drug concentration ([2]; male SD rats, 10 h, 12 mg/kg): 167.3 ng/mL and 1144.3 ng/mL and 424.6 ng/mL and 914.9 ng/mL and 382.7 ng/mL and 196.1 ng/mL and 396.3 ng/mL | Blood drug concentration ([2]; male SD rats, 12 h, 12 mg/kg): 513.5 ng/mL and 873.9 ng/mL and 343.7 ng/mL and 730.7 ng/mL and 234.9 ng/mL and 303.8 ng/mL and 285.4 ng/mL | Blood drug concentration ([2]; male SD rats, 18 h, 12 mg/kg): 68.5 ng/mL and 110.5 ng/mL and 196.7 ng/mL and 97 ng/mL and 83.3 ng/mL and 73.4 ng/mL and 134.5 ng/mL | Blood drug concentration ([2]; male SD rats, 24 h, 12 mg/kg): 13.7 ng/mL and 68.5 ng/mL and 61.6 ng/mL and 20.7 ng/mL and 27.6 ng/mL and 13.8 ng/mL and 133.4 ng/mL | Tmax ([2]; male SD rats, 12 mg/kg): 9.7 h | concentration at 0.5 h [2, 4]: 8.5 ng/mL | concentration at 1 h [2, 5]: 28.2 ng/mL | concentration at 2 h [2, 6]: 119 ng/mL | concentration at 3 h [2, 7]: 225 ng/mL | concentration at 4 h [2, 8]: 244 ng/mL | concentration at 5 h [2, 9]: 312 ng/mL | concentration at 6 h [2, 10]: 333 ng/mL | concentration at 8 h [2, 11]: 348 ng/mL | concentration at 10 h [2, 12]: 518 ng/mL | concentration at 12 h [2, 13]: 469 ng/mL | concentration at 18 h [2, 14]: 109 ng/mL | concentration at 24 h [2, 15]: 48.5 ng/mL | Tmax ([2]; male, SD, rat, plasma, po, 12 mg/kg, read-out: Tmax): ~10 h | AUC(0-inf) ([2]; rat, plasma, male SD rats): 6220 ng·h/mL | AUC(0-t) ([2]; rat, plasma, male SD rats): 5830 ng·h/mL | Cmax ([2]; rat, plasma, male SD rats): 649 ng/mL | half-life ([2]; rat, plasma, male SD rats): 4.5 h
